Consider 6 molecules from patent US11000033B2, “Ketone or oxime compound, and herbicide” (NISSAN CHEMICAL CORPORATION, priority 2014, dated 2021).

Format in all cases: in vivo
The test system of one series is Alopecurus myosuroides. In words: Test Example 5: herbicidal effect by foliage application, plastic box (symbol J). To be noted: 320 g/ha, 3 weeks after application. A digest of the protocol: (§1)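 Visual herbicidal score, taken three weeks post-application, of seedlings sprayed on the foliage with water-diluted emulsion at a predetermined amount; plants were 14 days old, greenhouse-raised at 25° C. to 30° C.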

Series [1] relates to Monochoria vaginalis. Kind of series: Test Example 1: herbicidal activity, application before weed generation in submerged conditions (symbol C). To be noted: application herbicide amount 320 g/ha. The gist of the method:
(§2)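 Paddy pre-emergence test. Formulated emulsion, water-diluted to a predetermined rate, is applied to floodwater on sowing day; rice transplanted at 2.5 leaves. Effect read at 3 weeks on a 0–5 herbicidal-ratio scale.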

In series [2] the test system is Echinochloa crus-galli var. crus-galli. In words: Test Example 5: herbicidal effect by foliage application, plastic box (symbol H). To be noted: 320 g/ha, 3 weeks after application. The gist of the method: as §1
The test system of the next series is rapeseed. Kind of series: Test Example 4: effect on crop by soil treatment (symbol g). To be noted: application herbicide amount 320 g/ha. A digest of the protocol:
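Greenhouse culture at 25° C. to 30° C. followed sowing of seed in spots on sterilized diluvial soil with a soil cover close to 1.5 cm thick.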

Series [3] concerns Amaranthus retroflexus. Kind of series: Test Example 4: herbicidal effect by soil treatment (symbol N). To be noted: application herbicide amount 320 g/ha. A digest of the protocol:
(§3)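 Seeds were sown in sterilized diluvial soil, covered with about 1.5 cm of soil, and the soil surface was sprayed with a water-diluted emulsion of the compound at a predetermined rate. Plants grew in a greenhouse at 25° C. to 30° C.; effects were scored visually 3 weeks after application.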

The test system of the next series is Avena fatua. Kind of series: Test Example 5: herbicidal effect by foliage application, plastic box (symbol I). To be noted: 320 g/ha, 3 weeks after application. The gist of the method: as §1
Another series has as its system Cyperus difformis. Kind of series: Test Example 3: herbicidal effect by foliage application, Wagner pot (symbol E). To be noted: application herbicide amount 320 g/ha. A digest of the protocol:
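In a shallow-flooded alluvial soil system held at 25–30 °C, plants including rice grew for 14 days and were then sprayed over the foliage with emulsion diluted to a fixed herbicide amount. Visual rating followed at 3 weeks.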

In series [4] the test system is Echinochloa oryzacola Vasing. In words: Test Example 1: herbicidal activity, application before weed generation in submerged conditions (symbol A). To be noted: application herbicide amount 320 g/ha. A digest of the protocol:
as §2

For series [5], the system named is Amaranthus retroflexus. Kind of series: Test Example 5: herbicidal effect by foliage application, plastic box (symbol N). To be noted: 320 g/ha, 3 weeks after application. A digest of the protocol:
as §1

Series [6] deals with directly sowed rice plant. In words: Test Example 3: effect on crop by foliage application, Wagner pot (symbol b). To be noted: application herbicide amount 320 g/ha. A digest of the protocol: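 Wagner pot (1/10000 are), alluvial soil, submerged 0.1–0.5 cm; sown E. crus-galli var. crus-galli, L. chinensis, C. difformis, rice; greenhouse 25–30 °C.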
The subject of the next series is Digitaria ciliaris. In words: Test Example 4: herbicidal effect by soil treatment (symbol F). To be noted: application herbicide amount 320 g/ha. A digest of the protocol: as §3
Series [7] deals with Monochoria vaginalis. Kind of series: Test Example 2: herbicidal activity, application during weed generation in submerged conditions (symbol C). To be noted: Table 23; application herbicide amount 320 g/ha; grade 0-5 by criteria of Test Example 1. The gist of the method: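 Compound was applied as a water-diluted emulsion into the standing water of flooded pots (4 cm) once co-sown weeds reached one to two leaves. Greenhouse temperature was 25° C. to 30° C., soil was alluvial, and each species was rated visually after 3 weeks.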

Another series concerns Apera spica-venti. Kind of series: Test Example 4: herbicidal effect by soil treatment (symbol L). To be noted: application herbicide amount 320 g/ha. The gist of the method: as §3

In the case of `COCC(CC1CC(O)=C(c2c(C)cc(C)cc2C)C1=O)=NOC` (centres unmarked) [1-040], the “J: Alopecurus myosuroides, herbicidal effect grade” value with Alopecurus myosuroides is given as 5 (Herbicidal ratio of 90% or more (almost completely withered)). In addition, the “Herbicidal effect grade, C: Monochoria vaginalis” value (“Herbicidal effect grade, C” below) in the series on Monochoria vaginalis [1] and with Monochoria vaginalis [7] was 0 (Herbicidal ratio of 5% or lower (almost no effect)) in each case. Further, the “H: Echinochloa crus-galli var. crus-galli, herbicidal effect grade” value in [2] was 5 (Herbicidal ratio of 90% or more (almost completely withered)). The “g (rapeseed) effect on crop grade” value with rapeseed is 3 (Herbicidal ratio of 40% or higher and lower than 70%). In addition, the “N (Amaranthus retroflexus) herbicidal effect grade” value with Amaranthus retroflexus [3] is on record as 0 (Herbicidal ratio of 5% or lower (almost no effect)). In addition, in the series with Avena fatua, the “I: Avena fatua, herbicidal effect grade” value was 4 (Herbicidal ratio of 70% or higher and lower than 90%). The “herbicidal effect on E, grade 0-5” value with Cyperus difformis is 4 (Herbicidal ratio of 70% or higher and lower than 90%). In addition, the “Herbicidal effect grade, A: Echinochloa oryzacola Vasing.” value in series [4] is 3 (Herbicidal ratio of 40% or higher and lower than 70%). Also, in the series with Amaranthus retroflexus [5], the “N: Amaranthus retroflexus, herbicidal effect grade” value is on record as 0 (Herbicidal ratio of 5% or lower (almost no effect)). The “effect on crop b (directly sowed rice plant), grade 0-5” value (from here on “effect on crop b”) in series [6] is given as 5 (Herbicidal ratio of 90% or more (almost completely withered)). In the series on Digitaria ciliaris, the “F (Digitaria ciliaris) herbicidal effect grade” value was 4 (Herbicidal ratio of 70% or higher and lower than 90%). Moreover, the “L (Apera spica-venti) herbicidal effect grade” value in the series with Apera spica-venti is 5 (Herbicidal ratio of 90% or more (almost completely withered)).

For the molecule `CON=C(CC1CC(O)=C(c2c(C)cc(-n3cc(Cl)cn3)cc2C)C1=O)C(C)C` (centres unmarked) [9-004], in the series on Alopecurus myosuroides, the “J: Alopecurus myosuroides, herbicidal effect grade” value was 5 (Herbicidal ratio of 90% or more (almost completely withered)). Also, the “Herbicidal effect grade, C” value with Monochoria vaginalis [1] and in the series with Monochoria vaginalis [7] was 0 (Herbicidal ratio of 5% or lower (almost no effect)) throughout. Besides, in [2], the “H: Echinochloa crus-galli var. crus-galli, herbicidal effect grade” value is 5 (Herbicidal ratio of 90% or more (almost completely withered)). In the series with rapeseed, the “Effect on crop grade, g: rapeseed” value is 0 (Herbicidal ratio of 5% or lower (almost no effect)). Besides, the “Herbicidal effect grade, N: Amaranthus retroflexus” value (shortened to “Herbicidal effect grade, N”) in the series on Amaranthus retroflexus [3] was 0 (Herbicidal ratio of 5% or lower (almost no effect)). Besides, the “I: Avena fatua, herbicidal effect grade” value in the series with Avena fatua is listed as 5 (Herbicidal ratio of 90% or more (almost completely withered)). For the same molecule, the “E herbicidal effect grade” value with Cyperus difformis (Table 24) is reported as 5 (Herbicidal ratio of 90% or more (almost completely withered)). The “Herbicidal effect grade, A: Echinochloa oryzacola Vasing.” value in series [4] is reported as 5 (Herbicidal ratio of 90% or more (almost completely withered)). The “b (directly sowed rice plant) effect on crop grade” value in [6] (Table 24) is recorded as 5 (Herbicidal ratio of 90% or more (almost completely withered)). The “Herbicidal effect grade, F: Digitaria ciliaris” value (shortened to “Herbicidal effect grade, F”) with Digitaria ciliaris was 5 (Herbicidal ratio of 90% or more (almost completely withered)). The “Herbicidal effect grade, L: Apera spica-venti” value (shortened to “Herbicidal effect grade, L”) with Apera spica-venti is 5 (Herbicidal ratio of 90% or more (almost completely withered)).

As to `CC(CC1CC(O)=C(c2c(C)cc(C)cc2C)C1=O)=NOc1ccccc1` (centres unmarked) [1-057], the “J: Alopecurus myosuroides, herbicidal effect grade” value with Alopecurus myosuroides was 3 (Herbicidal ratio of 40% or higher and lower than 70%). Further, the “Herbicidal effect grade, C” value is 2 (Herbicidal ratio of 20% or higher and lower than 40%) in the series with Monochoria vaginalis [1]; 0 (Herbicidal ratio of 5% or lower (almost no effect)) in the series with Monochoria vaginalis [7]. The “H: Echinochloa crus-galli var. crus-galli, herbicidal effect grade” value in series [2] is 4 (Herbicidal ratio of 70% or higher and lower than 90%). The “g (rapeseed) effect on crop grade” value in the series with rapeseed is 4 (Herbicidal ratio of 70% or higher and lower than 90%). In addition, the “N (Amaranthus retroflexus) herbicidal effect grade” value in the series on Amaranthus retroflexus [3] was 1 (Herbicidal ratio of 5% or higher and lower than 20%). In the series with Avena fatua, the “I: Avena fatua, herbicidal effect grade” value was 2 (Herbicidal ratio of 20% or higher and lower than 40%). For the same molecule, in the series on Cyperus difformis, the “herbicidal effect on E, grade 0-5” value is 3 (Herbicidal ratio of 40% or higher and lower than 70%). The “Herbicidal effect grade, A: Echinochloa oryzacola Vasing.” value in series [4] is on record as 5 (Herbicidal ratio of 90% or more (almost completely withered)). For the same molecule, the “N: Amaranthus retroflexus, herbicidal effect grade” value in the series with Amaranthus retroflexus [5] is recorded as 0 (Herbicidal ratio of 5% or lower (almost no effect)). The “effect on crop b” value in series [6] is 5 (Herbicidal ratio of 90% or more (almost completely withered)). Besides, the “F (Digitaria ciliaris) herbicidal effect grade” value with Digitaria ciliaris is 4 (Herbicidal ratio of 70% or higher and lower than 90%). For the same molecule, in the series with Apera spica-venti, the “L (Apera spica-venti) herbicidal effect grade” value was 4 (Herbicidal ratio of 70% or higher and lower than 90%).

For the molecule `CC(=O)CC1CC(O)=C(c2c(C)cc(-c3ncccn3)cc2C)C1=O` (centres unmarked) [7-017], the “J: Alopecurus myosuroides, herbicidal effect (criteria of Test Example 1)” value in the series with Alopecurus myosuroides was 2 (Herbicidal ratio of 20% or higher and lower than 40%). Moreover, the “H: Echinochloa crus-galli var. crus-galli, herbicidal effect (criteria of Test Example 1)” value in series [2] is 5 (Herbicidal ratio of 90% or more (almost completely withered)). Also, the “Effect on crop grade, g: rapeseed” value in the series on rapeseed was 0 (Herbicidal ratio of 5% or lower (almost no effect)). Further, the “Herbicidal effect grade, N” value in the series with Amaranthus retroflexus [3] is listed as 0 (Herbicidal ratio of 5% or lower (almost no effect)). The “I: Avena fatua, herbicidal effect (criteria of Test Example 1)” value with Avena fatua was 0 (Herbicidal ratio of 5% or lower (almost no effect)). Also, the “herbicidal effect on E, grade 0-5” value with Cyperus difformis was 4 (Herbicidal ratio of 70% or higher and lower than 90%). Also, the “N: Amaranthus retroflexus, herbicidal effect (criteria of Test Example 1)” value in the series with Amaranthus retroflexus [5] is reported as 0 (Herbicidal ratio of 5% or lower (almost no effect)). Besides, the “effect on crop b” value in series [6] is listed as 5 (Herbicidal ratio of 90% or more (almost completely withered)). For the same molecule, the “Herbicidal effect grade, F” value in the series on Digitaria ciliaris was 4 (Herbicidal ratio of 70% or higher and lower than 90%). Further, the “Herbicidal effect grade, L” value in the series with Apera spica-venti is 0 (Herbicidal ratio of 5% or lower (almost no effect)).

For `CC(=O)CC1CC(O)=C(c2c(C)cc(Oc3ccccc3)cc2C)C1=O` (centres unmarked) [7-014], the “J: Alopecurus myosuroides, herbicidal effect (criteria of Test Example 1)” value in the series with Alopecurus myosuroides is recorded as 0 (Herbicidal ratio of 5% or lower (almost no effect)). In [2], the “H: Echinochloa crus-galli var. crus-galli, herbicidal effect (criteria of Test Example 1)” value is recorded as 5 (Herbicidal ratio of 90% or more (almost completely withered)). Also, the “Effect on crop grade, g: rapeseed” value in the series with rapeseed is 0 (Herbicidal ratio of 5% or lower (almost no effect)). For the same molecule, the “Herbicidal effect grade, N” value in the series with Amaranthus retroflexus [3] is on record as 0 (Herbicidal ratio of 5% or lower (almost no effect)). In addition, the “I: Avena fatua, herbicidal effect (criteria of Test Example 1)” value with Avena fatua is 1 (Herbicidal ratio of 5% or higher and lower than 20%). In the series on Cyperus difformis, the “herbicidal effect on E, grade 0-5” value is 2 (Herbicidal ratio of 20% or higher and lower than 40%). Moreover, the “N: Amaranthus retroflexus, herbicidal effect (criteria of Test Example 1)” value with Amaranthus retroflexus [5] is 0 (Herbicidal ratio of 5% or lower (almost no effect)). Also, the “effect on crop b” value in series [6] is recorded as 5 (Herbicidal ratio of 90% or more (almost completely withered)). Moreover, the “Herbicidal effect grade, F” value in the series with Digitaria ciliaris is 3 (Herbicidal ratio of 40% or higher and lower than 70%). The “Herbicidal effect grade, L” value in the series on Apera spica-venti is reported as 0 (Herbicidal ratio of 5% or lower (almost no effect)).

For `CC(=O)CC1CC(O)=C(c2c(C)cc(-c3ccc(OC(F)(F)F)cc3)cc2C)C1=O` (centres unmarked) [7-016], the “J: Alopecurus myosuroides, herbicidal effect (criteria of Test Example 1)” value with Alopecurus myosuroides is on record as 0 (Herbicidal ratio of 5% or lower (almost no effect)). Further, the “H: Echinochloa crus-galli var. crus-galli, herbicidal effect (criteria of Test Example 1)” value in series [2] was 1 (Herbicidal ratio of 5% or higher and lower than 20%). In addition, the “Effect on crop grade, g: rapeseed” value in the series with rapeseed is given as 0 (Herbicidal ratio of 5% or lower (almost no effect)). Moreover, in the series with Amaranthus retroflexus [3], the “Herbicidal effect grade, N” value is reported as 0 (Herbicidal ratio of 5% or lower (almost no effect)). Besides, the “I: Avena fatua, herbicidal effect (criteria of Test Example 1)” value with Avena fatua is 0 (Herbicidal ratio of 5% or lower (almost no effect)). Also, the “herbicidal effect on E, grade 0-5” value with Cyperus difformis is given as 0 (Herbicidal ratio of 5% or lower (almost no effect)). The “N: Amaranthus retroflexus, herbicidal effect (criteria of Test Example 1)” value with Amaranthus retroflexus [5] was 0 (Herbicidal ratio of 5% or lower (almost no effect)). Moreover, the “effect on crop b” value in [6] is recorded as 0 (Herbicidal ratio of 5% or lower (almost no effect)). The “Herbicidal effect grade, F” value with Digitaria ciliaris is 3 (Herbicidal ratio of 40% or higher and lower than 70%). The “Herbicidal effect grade, L” value in the series with Apera spica-venti is 0 (Herbicidal ratio of 5% or lower (almost no effect)).
